Laboratory results from PubChem BioAssay AID602168 (The Scripps Research Institute Molecular Screening Center, 2012).
Activity calls are given as the source filed them. The rule behind the calls is not given here.

Target: Nuclear receptor coactivator 1 (Homo sapiens) (UniProt Q15788)
Test: NCOA1 reporter inhibition potency – cell-based, luminescence, counter-screen for SRC3 inhibitor project, dose response (AID 602168)
Settings: Cell-based SRC1 luciferase reporter

Sequence of Nuclear receptor coactivator 1 (Homo sapiens) (Q15788 whole entry, looked up): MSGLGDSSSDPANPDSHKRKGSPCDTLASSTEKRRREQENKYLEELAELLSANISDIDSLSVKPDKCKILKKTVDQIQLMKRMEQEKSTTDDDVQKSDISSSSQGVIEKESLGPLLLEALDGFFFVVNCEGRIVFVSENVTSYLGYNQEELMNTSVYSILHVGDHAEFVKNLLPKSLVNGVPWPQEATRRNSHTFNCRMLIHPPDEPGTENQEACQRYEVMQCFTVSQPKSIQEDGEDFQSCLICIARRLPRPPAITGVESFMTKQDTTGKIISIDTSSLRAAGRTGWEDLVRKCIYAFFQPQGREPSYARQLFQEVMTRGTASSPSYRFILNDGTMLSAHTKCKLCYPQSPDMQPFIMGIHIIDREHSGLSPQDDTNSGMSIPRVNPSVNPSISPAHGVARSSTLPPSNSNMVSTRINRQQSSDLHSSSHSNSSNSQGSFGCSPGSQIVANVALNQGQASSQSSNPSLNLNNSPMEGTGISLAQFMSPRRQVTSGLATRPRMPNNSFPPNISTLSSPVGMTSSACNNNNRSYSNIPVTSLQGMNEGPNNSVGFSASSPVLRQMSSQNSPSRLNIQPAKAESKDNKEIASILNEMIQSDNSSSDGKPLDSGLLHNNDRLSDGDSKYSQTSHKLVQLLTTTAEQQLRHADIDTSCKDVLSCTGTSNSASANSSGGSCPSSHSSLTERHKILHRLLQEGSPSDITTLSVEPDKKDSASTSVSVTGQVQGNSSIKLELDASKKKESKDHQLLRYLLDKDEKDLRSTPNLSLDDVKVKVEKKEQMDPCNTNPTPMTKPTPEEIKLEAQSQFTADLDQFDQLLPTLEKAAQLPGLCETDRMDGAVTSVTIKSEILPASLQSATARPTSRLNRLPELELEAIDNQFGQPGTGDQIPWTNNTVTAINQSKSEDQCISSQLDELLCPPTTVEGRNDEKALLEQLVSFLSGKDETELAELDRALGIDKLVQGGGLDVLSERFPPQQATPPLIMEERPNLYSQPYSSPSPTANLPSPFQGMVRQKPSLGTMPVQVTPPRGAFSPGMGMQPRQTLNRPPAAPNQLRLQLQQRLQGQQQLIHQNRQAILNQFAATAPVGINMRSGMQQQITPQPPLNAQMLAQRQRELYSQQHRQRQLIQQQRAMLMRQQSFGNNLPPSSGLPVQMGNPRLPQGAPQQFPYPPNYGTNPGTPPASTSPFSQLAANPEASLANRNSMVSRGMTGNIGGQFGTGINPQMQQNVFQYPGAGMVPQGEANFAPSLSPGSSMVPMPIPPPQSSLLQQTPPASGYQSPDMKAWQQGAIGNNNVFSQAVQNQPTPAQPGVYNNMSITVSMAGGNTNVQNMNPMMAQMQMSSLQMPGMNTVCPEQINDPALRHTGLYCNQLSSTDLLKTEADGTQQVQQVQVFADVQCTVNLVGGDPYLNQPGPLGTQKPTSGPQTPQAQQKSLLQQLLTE

SMILES | IC50
Fc1ccccc1-c1csc(=Nc2cccnc2)n1CCCn1ccnc1 | 7.21 µM
COc1ccc(OC)c(Cc2cnc3nc(N)nc(N)c3c2C)c1 | > 35.9 µM (inactive)
NC(=S)N/N=C1\CCOc2ccc(Cl)cc21 | > 35.9 µM (inactive)
O=c1[nH]c2ccccc2n1C1CCN(C(c2ccccc2)c2nnnn2Cc2ccccc2)CC1 (centres undefined) | inactive
Cc1ccc(OCC(=O)c2cc(C)n(-c3ccccc3)c2C)c([N+](=O)[O-])n1 | inactive
O=C(Nc1cccnc1)c1ccc(C(=O)Nc2cccnc2)cc1 | > 35.9 µM (inactive)
CCCNC(=O)c1nnsc1S(=O)(=O)c1ccc(Cl)cc1 | inactive
Nc1ccc(Oc2ccccc2-c2ccccc2)cc1 | inactive
O=C(COc1ccc(Cl)cc1)Nc1ccc(C(=O)NCc2cccnc2)cc1 | 9.27 µM
O=c1[nH]c(O)c(N=Nc2ccc3c(c2)OCCO3)c(=O)[nH]1 | > 35.9 µM (inactive)
C(=NNc1ccc2ccccc2n1)c1ccccn1 | > 35.9 µM (inactive)
CCc1ccc(/C=C2\SC(=S)N(CCCC(=O)NCCCN3CCOCC3)C2=O)cc1 | inactive
CC(C)(C)c1ccc(Oc2ccc(N)cn2)cc1 | inactive
CN(Cc1cnc2nc(N)nc(N)c2n1)c1ccc(C(=O)NC(CCC(=O)O)C(=O)O)c2ccccc12 (centres undefined) | > 35.9 µM (inactive)
COc1ccc(/C=C2/SC(=S)N(CCC(=O)O)C2=O)cc1 | > 35.9 µM (inactive)
CCC(=O)c1ccc(O)c(CC=C(C)C)c1 | inactive
CCCC(=O)NC(c1ccc(Cl)cc1Cl)c1ccc2cccnc2c1O (centres undefined) | 6.03 µM
Cc1cccc2sc(NNC(=O)c3ccc(S(=O)(=O)N4CC(C)CC(C)C4)cc3)nc12 (centres undefined) | 4.52 µM
Cc1ccc(C(=O)O/N=C(\N)c2ccccn2)c(Cl)c1 | > 35.9 µM (inactive)
CCC(=O)N1CCN(c2ccnc3cc(Cl)ccc23)CC1 | inactive
Cc1sc2ncnc(N3CCC(C(=O)Nc4ccccc4C(C)(C)C)CC3)c2c1C | 7.15 µM
C(=N\Nc1nc2ccccc2[nH]1)/c1cccc2cccnc12 | > 35.9 µM (inactive)
COc1cc(NS(C)(=O)=O)ccc1Nc1c2ccccc2nc2ccccc12 | > 35.9 µM (inactive)
O=C(CC(Nc1ccc(Cl)cc1Cl)C(=O)O)c1ccccc1 (centres undefined) | > 35.9 µM (inactive)
CCCC(=O)NC(c1ccc2c(c1)OCO2)c1cc(Cl)c2cccnc2c1O (centres undefined) | 7.24 µM

SMILES | IC50
COc1cccc2c1C(=N)c1c(O)c3c(c(O)c1C2=O)CC(O)(C(C)=O)CC3OC1CC(N)C(O)C(C)O1 (centres undefined) | > 35.9 µM (inactive)
COc1cc(/C=N/NC(=Nc2ccc(C)cc2)c2nc3ccccc3s2)ccc1O | 8.17 µM
O=C(NC(NC(=S)N1CCOCC1)C(Cl)(Cl)Cl)c1ccc(Cl)cc1 (centres undefined) | inactive
Cc1c(CC(=O)NCCCC(=O)O)c(=O)oc2cc3c(cc12)CCC(C)(C)O3 | 9.04 µM
CC(=O)c1cccc(NC(=O)Nc2ccc3c(c2)N(C)C(=O)CS3)c1 | inactive
Cc1nnc(SC(=O)N2c3ccccc3Sc3ccccc32)s1 | > 35.9 µM (inactive)
Cc1cccc(C)c1NS(=O)(=O)c1ccc(-c2cnc(C3CC3)o2)cc1 | inactive
COc1cccc(-c2nnc3sc(C4CCCCC4)nn23)c1 | 3.46 µM
Cc1cccc(Oc2sc(C(=O)c3ccccc3)c(N)c2C#N)c1 | inactive
O=C(COC(=O)c1ccc[nH]c1=O)Nc1ccc(N2CCCCC2)cc1 | > 35.9 µM (inactive)
O=C(N/N=C\c1ccc([N+](=O)[O-])o1)C1COc2ccccc2O1 (centres undefined) | > 35.9 µM (inactive)
C/C(=N\NC(=S)Nc1cc(S(=O)(=O)N2CCOCC2)ccc1Cl)c1ccccc1F | inactive
CN(C)S(=O)(=O)c1ccc(N2CCN(S(=O)(=O)c3ccc(F)cc3)CC2)c(Cl)c1 | inactive
CC(=O)Nc1ccc(SCC(=O)c2cc(C)n(-c3ccccc3F)c2C)cc1 | > 12 µM (inactive)
c1ccc(-c2noc(-c3ccc4ccccc4c3)n2)nc1 | inactive
Nc1ccc(-c2cc3ccccc3oc2=O)cc1 | > 35.9 µM (inactive)
CC1(C)N=C(N)N=C(N)N1CCCCc1ccccc1 | 4.58 µM
CCN(c1cccc(C)c1)c1ncnc2nc[nH]c12 | inactive
CCc1nc(N)nc(N)c1-c1ccc(Cl)c([N+](=O)[O-])c1 | 0.603 µM
C=CCn1c(O)c(C(C)=NCc2cc(OC)cc(OC)c2)c(=O)[nH]c1=O | > 35.9 µM (inactive)
C=CC[n+]1c(-c2ccc(C)cc2)csc1Nc1ccc(NC(C)=O)cc1 | > 35.9 µM (inactive)
CC(=O)N1CCN(c2ncnc3ccccc23)CC1 | inactive
CCOC(=O)CC(=O)CSc1nccc(-c2cccnc2)n1 | > 35.9 µM (inactive)
CC(C)(C)c1cc(C(=O)N/N=C/c2ccc(O)cc2)n(-c2ccccc2)n1 | > 35.9 µM (inactive)
COc1ccc(-n2cnc3c(sc4nccc(N(C)C)c43)c2=O)cc1 | inactive

SMILES | IC50
Cc1ccc(NC(=O)c2cc(C)n(-c3ccccc3)c2C)cc1 | > 35.9 µM (inactive)
COc1cccc(/C=N/Nc2ccc([N+](=O)[O-])cn2)c1O | > 35.9 µM (inactive)
COCCNC(=O)c1cc(-c2ccccn2)nc2ccc(S(=O)(=O)N3CCC(C)CC3)cc12 | > 35.9 µM (inactive)
COc1cc(/C=C(/C(=O)c2cccs2)c2nc3ccccc3[nH]2)cc(OC)c1O | > 35.9 µM (inactive)
O=S(=O)(c1ccc(F)cc1)c1snnc1-c1ccccc1 | > 35.9 µM (inactive)
Cc1ccc(N(CCC#N)C(=O)CCl)cc1C | inactive
Cc1cc(C(=O)CN2C(=O)c3ccccc3S2(=O)=O)c(C)n1C(C)C | inactive
Nc1nc(=S)c2ncn([C@@H]3O[C@H](CO)[C@@H](O)[C@H]3O)c2[nH]1 | > 35.9 µM (inactive)
COc1ccccc1C(=O)N(CCC1CCCN1C)c1nc2ccccc2s1 (centres undefined) | > 35.9 µM (inactive)
Cc1c(/C(O)=C2/C(=O)C(=O)N(Cc3cccnc3)C2c2ccccn2)cnn1-c1ccccc1 (centres undefined) | > 35.9 µM (inactive)
CN1CCN(c2ccc(NC(=O)N3CCc4ccccc43)cc2)CC1 | > 35.9 µM (inactive)
O=C(NCc1ccccc1)c1c(Cl)nc(Cl)c(Cl)c1Cl | > 35.9 µM (inactive)
O=C(CNc1cccc([N+](=O)[O-])c1)N/N=C/c1ccc([N+](=O)[O-])o1 | > 35.9 µM (inactive)
CS(=O)c1nc(-c2ccc(Br)cc2)cc(-c2ccccc2)c1C#N (centres undefined) | inactive
O=[N+]([O-])c1nn(-c2ccc3c(c2)OCCO3)n(O)c1=Nc1ccccc1 | 0.812 µM
C=CCn1c(C)cc(C(=O)COc2ccc(C)nc2[N+](=O)[O-])c1C | > 35.9 µM (inactive)
Cc1cc2nccc(-c3ccncc3)n2n1 | inactive
Nc1ncnc(NCc2ccccc2)c1[N+](=O)[O-] | inactive
O=C(OCc1ccccc1)c1ccc(NCc2cc(O)ccc2O)cc1 | > 12 µM (inactive)
O=C(N/N=C(\c1ccccc1)c1ccccn1)c1ccccc1Cl | inactive
O=C(NCCc1ccccc1)c1ccc2c(c1)OCCO2 | inactive
CCOc1ccc(/C=C2\SC(=S)N(CCCC(=O)NCCCN3CCOCC3)C2=O)cc1 | > 35.9 µM (inactive)
CC(=O)c1cccc(-c2csc3ncnc(Sc4nnnn4C)c23)c1 | > 35.9 µM (inactive)
COc1ccc(CCNC(=O)c2nnn(-c3ccc4c(c3)OCCO4)c2N)cc1OC | > 35.9 µM (inactive)
